pIC50: −log10 of the molar value. Structures can show the parent of a compound that is named as a salt.
Legend:
Dishevelled-2 protein = settings: according to WO 2011/035321 (A1); cited from earlier work
Frizzled1 = settings: according to WO 2011/035321 (A1); cited from earlier work
[1] = system: LEF/TCF reporter activity; settings: Wnt3A-stimulated; according to WO 2011/035321 (A1); cited from earlier work
[2] = system: Wnt3A-stimulated R-catenin stabilization; settings: according to WO 2011/035321 (A1); cited from earlier work
HCT116 FOPFlash = assay: Control reporter assay, HCT116 FOP control vector (non-functional TCF elements), luciferase expression; assay type: cell-based; settings: Homo sapiens, HCT-116, 36 h, HCT116 FOP control reporter cells, 36 hours incubation, dilution series 50 μM to 15 nM
In short: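 Stable HCT116 cells carrying FOP vector (randomized non-functional TCF sites) plus pcDNA3, run in parallel with TOP line; compounds 50 μM to 15 nM (3.16-fold steps) added in CAFTY buffer pH 7.4 with 2 mM Ca2+, 0.01% BSA. Incubated 36 h at 37 °C, 5% CO2; luciferase luminescence read.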

[3] = system: constitutive active colorectal cancer cell (CRC) Wnt pathway, HCT116 TOPFlash; assay: Cellular reporter assay, HCT116 Super TopFlash (constitutive active Wnt pathway), luciferase expression; assay type: cell-based; settings: Homo sapiens, HCT-116, 36 h, HCT116 Super TopFlash reporter cells, 36 hours incubation, dilution series 50 μM to 15 nM
In short: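 HCT116 cells stably carrying Super TopFlash (β-catenin ΔS45, constitutive Wnt) run in parallel with FOP control line; compounds 50 μM to 15 nM (3.16-fold) in CAFTY buffer pH 7.4 with 2 mM Ca2+, 0.01% BSA, 36 h at 37 °C. Luciferase luminescence read as Wnt activity.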

Structure (SMILES)	pIC50 (HCT116 FOPFlash)	pIC50 [3]	Dishevelled-2 protein regulation (Dishevelled-2 protein)	Frizzled1 internalization (endocytosis) (Frizzled1)	LEF/TCF reporter activity [1]	Wnt3A-stimulated R-catenin stabilization [2]
O=C(Nc1ccc([N+](=O)[O-])cc1Cl)c1cc(Cl)ccc1O [niclosamide]			down regulates Dishevelled-2 protein	promotes Frizzled1 internalization (endocytosis)	inhibits	inhibits
O=C(CN1CCOCC1)Nc1cc(C(=O)Nc2nnc(-c3cscn3)s2)ccc1OC(F)(F)F [Example 67, 3-[(morpholin-4-ylacetyl)amino]-N-[5-(1,3-thiazol-4-yl)-1,3,4-thiadiazol-2-yl]-4-(trifluoromethoxy)benzamide]	≤ 4.30	5.78				
O=C(CN1CCOCC1)Nc1cc(C(=O)Nc2ccc(-c3cncnc3)cn2)ccc1OC(F)(F)F [Example 1, 3-[(morpholin-4-ylacetyl)amino]-N-[5-(pyrimidin-5-yl)pyridin-2-yl]-4-(trifluoromethoxy)benzamide]	≤ 4.30	6.84				
Cc1nc(-c2nnc(NC(=O)c3ccc(OC(F)(F)F)c(NC(=O)CN4CCOCC4)c3)s2)cs1 [Example 95, N-[5-(2-methyl-1,3-thiazol-4-yl)-1,3,4-thiadiazol-2-yl]-3-[(morpholin-4-ylacetyl)amino]-4-(trifluoromethoxy)benzamide]	≤ 4.30	4.60				
Nc1ccc(-c2nnc(NC(=O)c3ccc(OC(F)(F)F)c(NC(=O)CN4CCOCC4)c3)s2)cn1 [Example 55, N-[5-(6-aminopyridin-3-yl)-1,3,4-thiadiazol-2-yl]-3-[(morpholin-4-ylacetyl)amino]-4-(trifluoromethoxy)benzamide]	≤ 4.30	6.62				

Second part, led by results:

pIC50 (HCT116 FOPFlash)	pIC50 [3]	Structure (SMILES)	Dishevelled-2 protein regulation (Dishevelled-2 protein)	Frizzled1 internalization (endocytosis) (Frizzled1)	LEF/TCF reporter activity [1]	Wnt3A-stimulated R-catenin stabilization [2]
4.65	6.29	CN1CCN(CC(=O)Nc2cc(C(=O)Nc3nnc(-c4ccccn4)s3)ccc2OC(F)(F)F)CC1 [Example 9, 3-{[(4-methylpiperazin-1-yl)acetyl]amino}-N-[5-(pyridin-2-yl)-1,3,4-thiadiazol-2-yl]-4-(trifluoromethoxy)benzamide hydrochloride]				
≤ 4.30	≤ 4.30	COc1ccc(C(=O)Nc2nnc(-c3cnccc3C)s2)cc1NC(=O)CN1CCOCC1 [Example 106, 4-methoxy-N-[5-(4-methylpyridin-3-yl)-1,3,4-thiadiazol-2-yl]-3-[(morpholin-4-ylacetyl)amino]benzamide]				
